Assay results published in patent publication US20120220581A1, “IMIDAZO[1,2-b]PYRIDAZINE DERIVATIVES AND THEIR USE AS PDE10 INHIBITORS” (Janssen-Cilag, S.A., priority 2009, published 2012).

Key:
[1] = target: T1, Rat recombinant PDE10A (rPDE10A2) (Rattus norvegicus, UniProt Q9QYJ6); experiment: In vitro assay PDE10A (SPA, 3H-cAMP); format: biochemical; settings: pIC50 corresponds to the −log IC50 expressed in mol/L; read-out: PDE10A2 pIC50 (converted)
T1 construct: inferred from the Ni metal chelate purification; made in house; host or cells: Sf9 insect cells (baculovirus)
T1 sequence (Q9QYJ6 1-794): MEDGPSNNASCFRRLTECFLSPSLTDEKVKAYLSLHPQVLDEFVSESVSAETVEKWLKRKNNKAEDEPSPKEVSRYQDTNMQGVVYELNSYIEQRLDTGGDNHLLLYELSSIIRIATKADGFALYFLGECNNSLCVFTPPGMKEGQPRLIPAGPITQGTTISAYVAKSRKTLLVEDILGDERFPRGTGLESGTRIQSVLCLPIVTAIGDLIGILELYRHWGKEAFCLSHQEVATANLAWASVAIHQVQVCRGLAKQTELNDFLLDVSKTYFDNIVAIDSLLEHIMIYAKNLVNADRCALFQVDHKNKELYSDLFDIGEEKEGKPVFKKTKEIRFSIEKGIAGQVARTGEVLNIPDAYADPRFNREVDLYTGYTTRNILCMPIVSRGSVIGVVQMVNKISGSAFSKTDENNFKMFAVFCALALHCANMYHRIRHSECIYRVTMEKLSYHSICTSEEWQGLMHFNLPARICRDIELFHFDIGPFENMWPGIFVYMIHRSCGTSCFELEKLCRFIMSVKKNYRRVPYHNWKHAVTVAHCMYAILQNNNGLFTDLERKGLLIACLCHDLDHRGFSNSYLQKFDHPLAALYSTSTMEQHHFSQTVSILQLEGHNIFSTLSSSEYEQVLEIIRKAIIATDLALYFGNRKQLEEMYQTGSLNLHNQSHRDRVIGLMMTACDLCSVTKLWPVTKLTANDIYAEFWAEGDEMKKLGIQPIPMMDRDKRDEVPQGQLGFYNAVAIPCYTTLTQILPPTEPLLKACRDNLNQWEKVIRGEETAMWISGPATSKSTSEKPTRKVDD
Description: Rat recombinant PDE10A (rPDE10A2) was expressed in Sf9 cells using a recombinant rPDE10A baculovirus construct. Cells were harvested after 48 h of infection and the rPDE10A protein was purified by metal chelate chromatography on Ni-sepharose 6FF. Tested compounds were dissolved and diluted in 100% DMSO to a concentration 100 fold of the final concentration in the assay. Compound dilutions (0.4 μl) were added in 384 well plates to 20 μl of incubation buffer (50 mM Tris pH 7.8, 8.3 mM MgCl2, 1.7 mM EGTA). 10 μl of rPDE10A enzyme in incubation buffer was added and the reaction was started by addition of 10 μl substrate to a final concentration of 60 nM cAMP and 0.008 μCi ^3H-cAMP. The reaction was incubated for 60 minutes at room temperature. […] After sedimentation of the beads during 30 minutes the radioactivity was measured in a Perkin Elmer Topcount scintillation counter and results were expressed as cpm. For blanc values the enzyme was omitted from the reaction and replaced by incubation buffer. Control values were obtained by addition of a final concentration of 1% DMSO instead of compound. The same assay principle is applied for the measurement of the affinity of the compound for other members of the PDE family with appropriate modifications in incubation buffer, substrate concentration, incubation time and stop solution.

[2] = system: apomorphine-induced stereotypy in rats; experiment: Apomorphine-induced stereotypy in rats (APO); format: in vivo; settings: Rattus norvegicus, n.d.: found not active at threshold dose 2.5 mg/kg or 10 mg/kg (a)
Description: Apomorphine (1.0 mg/kg, i.v.)-induced stereotypy (compulsive sniffing, licking, chewing) was scored every 5 min over the first hour after injection of apomorphine, following a 1 hour interval pre-treatment with the test compound. The score system was: (3) pronounced, (2) moderate, (1) slight, and (0) absent.

IC50 [1] | SMILES | ED50 ([2]; not further tested) | ED50 ([2]; po, * not soluble, tested orally as a suspension)
0.126 µM | Cc1cc(-c2ccncc2)c2nc(C)c(-c3ccc(N4CCOCC4)nc3)n2n1 [compound 70, 2,6-dimethyl-3-[6-(4-morpholinyl)-3-pyridinyl]-8-(4-pyridinyl)-imidazo[1,2-b]pyridazine] | > 2.5 mg/kg | 
0.0977 µM | COCCOc1ccc(-c2c(C3CC3)nc3c(N4CCOCC4)ccnn23)cn1 [compound 73, 2-cyclopropyl-3-[6-(2-methoxyethoxy)-3-pyridinyl]-8-(4-morpholinyl)-imidazo[1,2-b]pyridazine] | > 2.5 mg/kg | 
0.0501 µM | Cc1nc2c(N3CCOCC3)ccnn2c1-c1ccc(CCOC(C)C)nc1 [compound 76, 2-methyl-3-[6-[2-(1-methylethoxy)ethyl]-3-pyridinyl]-8-(4-morpholinyl)-imidazo[1,2-b]pyridazine] | > 2.5 mg/kg | 
0.129 µM | Cc1nc2c(N3CCOCC3)ccnn2c1-c1ccc(CCN2CCCC2)nc1 [compound 77, 2-methyl-8-(4-morpholinyl)-3-[6-[2-(1-pyrrolidinyl)ethyl]-3-pyridinyl]-imidazo[1,2-b]pyridazine] | > 2.5 mg/kg | 
0.123 µM | Cc1nc2c(N3CCOCC3)cc(C3CC3)nn2c1-c1ccc(C2CCOCC2)nc1 [compound 78, 6-cyclopropyl-2-methyl-8-(4-morpholinyl)-3-[6-(tetrahydro-2H-pyran-4-yl)-3-pyridinyl]-imidazo[1,2-b]pyridazine] | > 2.5 mg/kg | 
0.263 µM | Cc1cc(N2CCOCC2)c2nc(C3CC3)c(-c3ccc(C4CCOCC4)nc3)n2n1 [compound 79, 2-cyclopropyl-6-methyl-8-(4-morpholinyl)-3-[6-(tetrahydro-2H-pyran-4-yl)-3-pyridinyl]-imidazo[1,2-b]pyridazine] | > 2.5 mg/kg | 
0.0447 µM | Cc1cc(-c2ccncc2)c2nc(C3CC3)c(-c3ccc(C4CCOCC4)nc3)n2n1 [compound 80, 2-cyclopropyl-6-methyl-8-(4-pyridinyl)-3-[6-(tetrahydro-2H-pyran-4-yl)-3-pyridinyl]-imidazo[1,2-b]pyridazine] | > 2.5 mg/kg | 
0.195 µM | Cc1nc2c(-c3ccncc3)cc(C3CC3)nn2c1-c1ccc(C2CCOCC2)nc1 [compound 81, 6-cyclopropyl-2-methyl-8-(4-pyridinyl)-3-[6-(tetrahydro-2H-pyran-4-yl)-3-pyridinyl]-imidazo[1,2-b]pyridazine] | > 2.5 mg/kg | 
0.145 µM | c1cc(N2CCOCC2)c2ncc(-c3ccc(C4CCOCC4)nc3)n2n1 [compound 82, 8-(4-morpholinyl)-3-[6-(tetrahydro-2H-pyran-4-yl)-3-pyridinyl]-imidazo[1,2-b]pyridazine] | > 2.5 mg/kg | 
0.0513 µM | CCc1ccc(-c2c(C)nc3c(-c4ccncc4)ccnn23)cn1 [compound 83, 3-(6-ethyl-3-pyridinyl)-2-methyl-8-(4-pyridinyl)-imidazo[1,2-b]pyridazine] | > 2.5 mg/kg | 
0.263 µM | CCc1ccc(-c2c(C)nc3c(-c4ccncc4)cc(C4CC4)nn23)cn1 [compound 86, 6-cyclopropyl-3-(6-ethyl-3-pyridinyl)-2-methyl-8-(4-pyridinyl)-imidazo[1,2-b]pyridazine] | > 2.5 mg/kg | 
0.0219 µM | CCc1ccc(-c2c(C3CC3)nc3c(-c4ccncc4)ccnn23)cn1 [compound 87, 2-cyclopropyl-3-(6-ethyl-3-pyridinyl)-8-(4-pyridinyl)-imidazo[1,2-b]pyridazine] | > 2.5 mg/kg | 
0.115 µM | CCc1ccc(-c2c(C)nc3c(-c4ccncc4)cc(C)nn23)cn1 [compound 88, 3-(6-ethyl-3-pyridinyl)-2,6-dimethyl-8-(4-pyridinyl)-imidazo[1,2-b]pyridazine] | > 2.5 mg/kg | 
0.132 µM | Cc1nc2c(N3CCOCC3)ccnn2c1-c1ccc(N2CCCC2)nc1 [compound 89, 2-methyl-8-(4-morpholinyl)-3-[6-(1-pyrrolidinyl)-3-pyridinyl]-imidazo[1,2-b]pyridazine] |  | > 2.5 mg/kg
0.0676 µM | Cc1nc2c(N3CCOCC3)ccnn2c1-c1ccc(NC(C)C)nc1 [compound 90, N-(1-methylethyl)-5-[2-methyl-8-(4-morpholinyl)imidazo[1,2-b]pyridazin-3-yl]-2-pyridinamine] | > 2.5 mg/kg | 
0.0575 µM | Cc1nc2c(N3CCOCC3)ccnn2c1-c1ccnc(N2CCCC2)c1 [compound 92, 2-methyl-8-(4-morpholinyl)-3-[2-(1-pyrrolidinyl)-4-pyridinyl]-imidazo[1,2-b]pyridazine] | > 2.5 mg/kg | 
0.0251 µM | Cc1nc2c(N3CCOCC3)ccnn2c1-c1ccnc(NC(C)C)c1 [compound 93, N-(1-methylethyl)-4-[2-methyl-8-(4-morpholinyl)imidazo[1,2-b]pyridazin-3-yl]-2-pyridinamine] | > 2.5 mg/kg | 
0.186 µM | Cc1cc(-c2ccncc2)c2nc(C)c(-c3ccc(N4CCNCC4)nc3)n2n1 [compound 96, 2,6-dimethyl-3-[6-(1-piperazinyl)-3-pyridinyl]-8-(4-pyridinyl)-imidazo[1,2-b]pyridazine] | > 2.5 mg/kg | 
0.141 µM | Cc1nc2c(-c3ccncc3)ccnn2c1-c1ccc(N2CCNCC2)nc1 [compound 97, 2-methyl-3-[6-(1-piperazinyl)-3-pyridinyl]-8-(4-pyridinyl)-imidazo[1,2-b]pyridazine] | > 2.5 mg/kg | 
0.11 µM | c1cc(N2CCOCC2)c2nc(C3CC3)c(-c3ccc(N4CCNCC4)nc3)n2n1 [compound 98, 2-cyclopropyl-8-(4-morpholinyl)-3-[6-(1-piperazinyl)-3-pyridinyl]-imidazo[1,2-b]pyridazine] | > 2.5 mg/kg | 
0.302 µM | Cc1nc2c(-c3ccncc3)cc(C3CC3)nn2c1-c1ccc(N2CCNCC2)nc1 [compound 99, 6-cyclopropyl-2-methyl-3-[6-(1-piperazinyl)-3-pyridinyl]-8-(4-pyridinyl)-imidazo[1,2-b]pyridazine] | > 2.5 mg/kg | 
0.178 µM | Cc1cc(-c2ccncc2)c2nc(C3CC3)c(-c3ccc(N4CCNCC4)nc3)n2n1 [compound 101, 2-cyclopropyl-6-methyl-3-[6-(1-piperazinyl)-3-pyridinyl]-8-(4-pyridinyl)-imidazo[1,2-b]pyridazine] | > 2.5 mg/kg | 
0.0447 µM | c1cc(-c2ccnn3c(-c4ccc(N5CCNCC5)nc4)c(C4CC4)nc23)ccn1 [compound 102, 2-cyclopropyl-3-[6-(1-piperazinyl)-3-pyridinyl]-8-(4-pyridinyl)-imidazo[1,2-b]pyridazine] | > 2.5 mg/kg | 
0.257 µM | Cc1nc2c(N3CCOCC3)ccnn2c1-c1ccnc(N2CCNCC2)c1 [compound 103, 2-methyl-8-(4-morpholinyl)-3-[2-(1-piperazinyl)-4-pyridinyl]-imidazo[1,2-b]pyridazine] | > 2.5 mg/kg | 
0.0537 µM | Cc1nc2c(N3CCOCC3)ccnn2c1-c1ccc(CC(C)C)nc1 [compound 104, 2-methyl-3-[6-(2-methylpropyl)-3-pyridinyl]-8-(4-morpholinyl)-imidazo[1,2-b]pyridazine] | > 2.5 mg/kg | 
0.0251 µM | Cc1nc2c(N3CCOCC3)ccnn2c1-c1ccnc(CC(C)C)c1 [compound 105, 2-methyl-3-[2-(2-methylpropyl)-4-pyridinyl]-8-(4-morpholinyl)-imidazo[1,2-b]pyridazine] | > 2.5 mg/kg | 
0.0661 µM | CCc1ccc(-c2c(C3CC3)nc3c(N4CCOCC4)ccnn23)cn1 [compound 106, 2-cyclopropyl-3-(6-ethyl-3-pyridinyl)-8-(4-morpholinyl)-imidazo[1,2-b]pyridazine] | > 2.5 mg/kg | 
